We go through 1 molecule from patent US9233095B2, “Small molecule RNase inhibitors and methods of use” (University of Rochester, priority 2011, dated 2016).

Values after ≈ are worked out from the molar mass of the structure shown. Values joined by “and” are separate entries in the source; they are usually repeats but may differ in a detail not shown here. Identical values can stand only once. Like-named read-outs stand apart in the source and are kept apart here.

One series concerns S. aureus (MSSA). In words: CLSI broth microdilution MIC. The class given is cell-based, Staphylococcus aureus. Conditions: Staphylococcus aureus, MSSA; strain UAMS-1. The text has this:
(§1) In some examples, compounds can be further assayed using the Mueller Hinton (MH) broth antibacterial assay as specified by the Clinical and Laboratory Standards Institute MIC broth microdilution protocol (see Methods for Dilution Antimicrobial Susceptibility Tests for Bacteria That Grow Aerobically; Approved Standard, In The Clinical and Laboratory Standards Institute (CLSI, formerly NCCLS), 7th ed., January 2006, 26 (2), M7-A7; see also Performance Standards for Antimicrobial Susceptibility Testing; Eighteenth Informational Supplement, In The Clinical and Laboratory Standards Institute (CLSI, formerly NCCLS), January 2008, 28 (1), M100-S18).
(§2) With the exception of RN4220-derivatives, in vitro activities of RNPA1000 against bacteria were determined by the broth microdilution method according to the Clinical and Laboratory Standards Institute (CLSI) guidelines using cation adjusted Mueller-Hinton broth or MH broth supplemented with 5% lysed horse blood (for testing Streptotococcus spp.). Microtiter plates containing serial dilutions of RNPA1000 (0, 4, 8, 16, 32, 64, and 128 μg/ml) were inoculated with 10^5 colony forming units (CFU)/ml and incubated for 18 hr at 37° C. […] The MIC value for each S. aureus strain was determined to be the median score of replicate measurements (n=5). Wells containing concentrations of RNPA1000≧MIC were plated for minimal bactericidal measurement. Where possible, experiments with VRSA strains were performed in a laminar flow hood to minimize potential for equipment contamination. For RN4220 cells containing plasmid vector (pCN51), RnpA overproducing plasmid (pRNPA-S) or RnpA underproducing plasmid (pRNPA-A.S.) in vitro antimicrobial activity of RNPA1000 was performed by the microdilution method as described above, except that cells were grown in Tryptic Soy Broth medium supplemented with 2.5 μM CdCl2 and 0, 1, 2, 4, 8, 16, 32, 64, or 128 μg/ml RNPA1000. Time-kill assays were also performed to monitor the antimicrobial properties of RNPA1000 for S. aureus strain UAMS-1 in the absence and presence of 0.25, 0.5, 2, and 4 times the strain's MIC for oxacillin (1 μg/ml), rifampicin (0.5 μg/ml), vancomycin (2 μg/ml), or daptomycin (1 μg/ml). The indicated amount of RNPA1000 and/or commercial antibiotic were added to mid-exponential phase (2×10^8 cfu/ml) S. aureus strain UAMS-1 cells and incubated at 37° C. Aliquots were removed at 0, 2, 4, 8, and 24 hr post-antimicrobial challenge, serial diluted, and plated to enumerate resulting cfu/ml. All time-kill assays were repeated at least 3 times.
Background: Broth dilution looks for growth in wells or tubes with falling amounts of substance.

Series [1] relates to S. aureus strain Smith. The series can be described thus: acute lethal model of infection. The class given is in vivo, CD-1 mice. Conditions: RNPA1000 128 mg/kg s.c., over the course of study.
The next series concerns E. coli. The series can be described thus: CLSI broth microdilution MIC. Type of series: cell-based, Escherichia coli.
Description: as §1, §2

For series [2], the system named is S. aureus strain Smith. The series can be described thus: acute lethal model of infection. Type of series: in vivo, CD-1 mice. The following applies: for % Survival: 5 days, one value per experiment. The protocol:
Because RNPA1000 was not toxic during short- and only mildly toxic during extended-HepG2 exposure, it could serve as an appropriate tool to assess whether RnpA-inhibitory molecules are efficacious in a systemic mouse infection model. […] RNPA1000 was solubilized in 1:1 mixture of DMSO and PEG400; Vancomycin was prepared in water. Animals (5/dose group) were administered 16, 64, and 256 mg/kg or 0.25, 1, 4, and 16 mg/kg of RNPA1000 or Vancomycin, respectively, at 30 min post infection by subcutaneous injection (0.2 ml). The percent surviving animals receiving no treatment, a single dose of Vancomycin, or RnpA-inhibitor was recorded daily over the course of the study (5 days).
Percent survival refers to a consensus of surviving animals following 5 days post-intraperitoneal S. aureus injection and RNPA1000 administration. The number in parentheses indicates the number of times the experiment was repeated. Each member of non-treated control mice expired within 24 hr bacterial inoculation (0 mg/kg). Vancomycin served as a positive control.

A further series has as its system HepG2 human hepatocytes. The series can be described thus: MTT cytotoxicity assay. The class given is cell-based. Conditions: for HepG2 cell toxicity: 24 hr exposure, any concentration tested (25, 50 μg/ml); for HepG2 cytotoxicity: 48 hr exposure. The protocol: It was then assessed whether RnpA-inhibitory agent concentrations corresponding to the effective bacterial MIC values (10-50 μg/ml) elicited human cell cytotoxicity. HepG2 human hepatocytes (10^5 cells) were seeded in individual wells of a microtitre plate and incubated for 16 hr at 37° C. with 5% carbon dioxide in Dulbecco's Modified Eagle Media supplemented with 10% fetal bovine serum. Cells were then challenged with Mitomycin C (5 μg/ml; positive control) or 0, 25, or 50 μg/ml RNPA1000 for either 24 or 48 hrs. Cell viability was measured spectrophotometrically (570 nm) following the addition and subsequent reduction of tetrazolium salt (MTT) within metabolically active cells, as per the manufacturer's recommendations (American Type Culture Collection; Manassas, Va.).
Background: Tetrazolium dyes change colour on reduction, which living cells bring about.

For `Cc1cc(/C=C(/C#N)C(=O)Nc2cccc(Br)c2)c(C)n1-c1ccc(C(=O)O)cc1` [RNPA1000], the minimal inhibitory concentration (MIC) in the series on S. aureus (MSSA) is 26 mg/L (≈ 56 µM); with E. coli (E. coli Isolate 2), more than 64 mg/L; in the series on E. coli (E. coli Isolate 3), more than 64 mg/L; in the series on E. coli (E. coli Isolate 4), more than 64 mg/L; in the series with E. coli (E. coli Isolate 5), more than 64 mg/L; in the series with E. coli (Escherichia coli, E. coli Isolate 1, read-out: MIC), more than 64 mg/L. Also, the survival in the series on S. aureus strain Smith [1] stood at 30%. The effect on growth result in the series with E. coli was “did not affect”. The “% Survival” value with S. aureus strain Smith [2] (RNPA1000 16 mg/kg s.c. 30 min post infection) is 20; 20(2) %; with S. aureus strain Smith [2] (RNPA1000 64 mg/kg s.c. 30 min post infection, 64 mg/kg), 40%; with S. aureus strain Smith [2] (RNPA1000 256 mg/kg s.c. 30 min post infection, 256 mg/kg) it was 60% and 40%. In the series on S. aureus strain Smith [2] (Staphylococcus aureus, in Mus musculus, sc, single dose, read-out: median effective dose (ED50)), the median effective dose (ED50) fell in the range of 64 to 256 mg/kg. For the same molecule, the HepG2 cell toxicity result in the series on HepG2 human hepatocytes is on record as “not toxic”; in the series with HepG2 human hepatocytes (listed as RNP1000), “did not cause human HepG2 cell toxicity”. Further, the HepG2 cytotoxicity result in the series with HepG2 human hepatocytes (25 μg/ml) is given as “mildly toxic”; in the series with HepG2 human hepatocytes (25 μg/ml, listed as RNP1000), “mild cytotoxicity”; in the series with HepG2 human hepatocytes (higher concentrations than 25 μg/ml), “increased toxicity”.

As a reminder, the MIC is the lowest concentration found to suppress growth. Broadly, the ED50 is the midpoint of the dose-response relation.
